The text below walks through data of US5393780A, “4-fluorobiphenyl derivatives” (priority 1993, dated 1995).

Data set [1] has as its target T1, HMG-CoA Reductase (Rattus norvegicus, UniProt P51639).
T1 sequence (P51639 1-887): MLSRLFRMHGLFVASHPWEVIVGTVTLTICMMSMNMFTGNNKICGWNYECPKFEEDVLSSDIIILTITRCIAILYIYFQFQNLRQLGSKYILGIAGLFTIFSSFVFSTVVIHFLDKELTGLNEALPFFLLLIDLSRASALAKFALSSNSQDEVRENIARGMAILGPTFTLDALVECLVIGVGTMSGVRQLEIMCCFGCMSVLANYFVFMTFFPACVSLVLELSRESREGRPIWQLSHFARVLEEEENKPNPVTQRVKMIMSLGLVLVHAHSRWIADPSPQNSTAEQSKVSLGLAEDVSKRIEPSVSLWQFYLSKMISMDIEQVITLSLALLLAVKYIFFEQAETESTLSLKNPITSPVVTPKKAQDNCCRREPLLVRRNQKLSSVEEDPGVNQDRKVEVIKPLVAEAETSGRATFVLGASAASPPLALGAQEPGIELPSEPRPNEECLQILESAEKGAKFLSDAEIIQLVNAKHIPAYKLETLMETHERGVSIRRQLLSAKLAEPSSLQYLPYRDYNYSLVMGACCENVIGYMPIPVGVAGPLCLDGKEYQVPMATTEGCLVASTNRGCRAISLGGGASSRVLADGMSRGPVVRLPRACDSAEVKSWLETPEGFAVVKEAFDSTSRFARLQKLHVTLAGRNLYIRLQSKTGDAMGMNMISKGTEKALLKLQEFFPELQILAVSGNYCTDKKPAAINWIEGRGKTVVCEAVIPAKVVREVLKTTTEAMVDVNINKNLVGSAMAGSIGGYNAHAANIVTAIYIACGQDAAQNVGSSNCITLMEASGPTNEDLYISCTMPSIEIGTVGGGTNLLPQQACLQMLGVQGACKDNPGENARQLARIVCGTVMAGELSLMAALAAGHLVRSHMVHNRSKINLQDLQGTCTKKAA
Kind of data set: biochemical. Conditions: read-out: HMG-CoA Reductase Inhibition %. The procedure: Determination of Inhibitory Activity on HMG-CoA Reductase
The inhibitory effect on HMG-CoA Reductase of each of representative examples of the 4-fluorobiphenyl derivatives prepared in the above-discussed examples was determined in accordance with the method described in Journal of Biological Chemistry (J. Biol. Chem.) Vol. 234, page 2835 (1959).

In data set [2] the test system is biosynthesis of sterol. Briefly: Determination of Inhibition of Sterol Synthesis (14C-acetic acid, liver, after oral dosing). In kind it is in vivo, SD rat. Conditions: 14C-acetic acid five hours later. The procedure:
Determination of Inhibition of Sterol Synthesis
Representative compounds (0.3 mg/5 ml/kg) suspended in a 5% arabic gum solution were orally given to SD rate weighing 150 to 200 g.
Five hours later, ^14 C-acetic acid (100 μCi/kg) was intraperitoneally injected, and furthermore one hour later, liver was removed to determine the inhibitory activity of each of the compounds on the biosynthesis of sterol.

A short description of data set [3]: Determination of Partition Coefficient (n-octanol/phosphoric acid buffer pH 7.0). The data set is classed as physicochemical. Conditions: P=Co/Cw; for logD: n-octanol/phosphate buffer. Here is the method: Determination of Partition Coefficient
The partition coefficient of each of representative compounds synthesized in the above-mentioned Examples was determined in accordance with the method by Hansh et al. (J. Am. Chem. Soc., 86, 5175 (1964)).
More specifically, the compound to be tested was dissolved in either an n-octanol solution which was saturated with a phosphoric acid buffer solution of pH 7.0 (Solution A) or a phosphoric acid buffer solution of pH 7.0 saturated with n-octanol (Solution B).
5 ml of the solution (Solution A or Solution B) in which the compound was dissolved and 5 ml of the solution (Solution B or Solution A) in which the compound was not dissolved were placed in a screw vial tube, and shaken for 30 minutes. This mixed solution was centrifuged for 15 minutes, and was then allowed to stand. The mixed solution was separated into two phases, that is, a water phase and a n-octanol phase.
The concentration of the compound in the water phase was determined by the UV method, and the concentration of the compound in the n-octanol phase was determined by deducting the concentration of the compound in the water phase from the concentration of the compound in the initially mixed solution (Solution A and Solution B).
The partition coefficient of the compound was calculated in accordance with the following formula:
Partition coefficient (P)=Co/Cw
wherein Co is the concentration of the compound in the n-octanol phase, and Cw is the concentration of the compound in the water phase.

Data set [4] deals with cholesterol in the blood. Conditions: cited from earlier work.
Data set [5] concerns the target T2, HMG-CoA Reductase (Homo sapiens, UniProt P04035).
T2 sequence (P04035 1-888): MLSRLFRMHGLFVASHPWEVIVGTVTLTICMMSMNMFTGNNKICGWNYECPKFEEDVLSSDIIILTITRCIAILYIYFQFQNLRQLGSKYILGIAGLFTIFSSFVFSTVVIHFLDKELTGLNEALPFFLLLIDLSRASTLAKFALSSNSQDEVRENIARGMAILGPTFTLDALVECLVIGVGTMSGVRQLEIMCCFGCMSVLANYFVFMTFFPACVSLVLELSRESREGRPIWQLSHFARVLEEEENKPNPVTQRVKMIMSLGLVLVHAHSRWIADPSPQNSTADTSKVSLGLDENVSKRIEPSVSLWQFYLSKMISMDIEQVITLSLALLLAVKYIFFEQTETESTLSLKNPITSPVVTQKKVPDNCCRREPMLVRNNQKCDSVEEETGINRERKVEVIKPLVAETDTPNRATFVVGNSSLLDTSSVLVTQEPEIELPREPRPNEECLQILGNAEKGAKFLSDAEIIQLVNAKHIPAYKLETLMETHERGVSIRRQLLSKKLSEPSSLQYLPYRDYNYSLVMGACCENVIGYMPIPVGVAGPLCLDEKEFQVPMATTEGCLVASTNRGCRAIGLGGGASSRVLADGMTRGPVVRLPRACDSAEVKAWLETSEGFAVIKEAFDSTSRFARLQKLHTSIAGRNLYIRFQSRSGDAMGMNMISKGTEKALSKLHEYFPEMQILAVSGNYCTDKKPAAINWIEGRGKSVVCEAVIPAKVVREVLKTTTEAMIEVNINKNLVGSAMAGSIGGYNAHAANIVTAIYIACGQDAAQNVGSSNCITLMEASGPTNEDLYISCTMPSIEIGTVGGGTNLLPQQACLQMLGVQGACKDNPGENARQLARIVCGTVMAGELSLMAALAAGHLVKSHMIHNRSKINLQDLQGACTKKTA
Conditions: cited from earlier work.

For data set [6] the following is noted: referred to JAMA (Japanese Edition) October 1991 Supplement, pages 42-47; cited from earlier work.
The conditions of data set [7]: cited from earlier work.
In data set [8] the test system is liver cells and non-liver cells. Conditions: cited from earlier work.
Data set [9] has as its system cells of smooth muscles. Conditions: advantage over pravastatin; cited from earlier work.
The conditions of data set [10]: literature reports; cited from earlier work.

For `COCCOc1cc(-c2ccc(F)cc2)c(/C=C/C(O)CC(O)CC(=O)[O-])c(C(C)C)c1.[Na+]` (centres unmarked), in data set [1], the inhibition at 0.1 µM is 96%. The “Sterol Synthesis Inhibition %” value in data set [2] (Administered amount 0.3 mg/kg) is recorded as 30%. This compound also had a pH-dependent lipophilicity (logD) in data set [3] of 0.716.
The compound `COCCOCCOc1cc(-c2ccc(F)cc2)c(/C=C/C(O)CC(O)CC(=O)O)c(C(C)C)c1` (centres unmarked) showed a logD in data set [3] of 0.519.
Regarding `CC(C)c1cc(OCc2ccccn2)cc(-c2ccc(F)cc2)c1/C=C/C(O)CC(O)CC(=O)O` (centres unmarked), the inhibition at 0.1 µM in data set [1] is 95%. In addition, the logD in [3] was 1.43.
Consider `CC(C)c1cc(OCc2cccnc2)cc(-c2ccc(F)cc2)c1/C=C/C(O)CC(O)CC(=O)O` (centres unmarked), for which the inhibition at 0.1 µM in data set [1] was 95%. The compound further showed a logD in data set [3] of 1.41.
For `CC(C)c1cc(OCc2ccncc2)cc(-c2ccc(F)cc2)c1/C=C/C(O)CC(O)CC(=O)O` (centres unmarked), in [1], the inhibition at 0.1 µM stood at 96%. Further, the logD in data set [3] is 1.48.
Take `CC(C)c1cc(OCCO)cc(-c2ccc(F)cc2)c1/C=C/C(O)CC(O)CC(=O)[O-].[Na+]` (centres unmarked): the inhibition at 0.1 µM in data set [1] was 98%. Moreover, the “Sterol Synthesis Inhibition %” value in data set [2] (Administered amount 0.3 mg/kg) is 40%. The compound also gave a log distribution coefficient (logD) in data set [3] of 0.114.
`CC[C@H](C)C(=O)O[C@H]1CCC=C2C=C[C@H](C)[C@H](CC[C@@H]3C[C@@H](O)CC(=O)O3)[C@H]21` [ML-236B, Mevastatin]: the cholesterol lowering effect result in [4] is recorded as “capable of lowering the concentration of cholesterol in the blood”. Besides, the “inhibitory effect on HMG-CoA reductase” value in data set [5] was “competitive inhibitory effect on HMG-CoA reductase”.
Consider `CC[C@H](C)C(=O)O[C@H]1C[C@H](O)C=C2C=C[C@H](C)[C@H](CC[C@@H](O)C[C@@H](O)CC(=O)O)[C@H]21` [Pravastatin], for which the inhibition at 0.1 µM in data set [1] came to 88%. Further, the “Sterol Synthesis Inhibition %” value in data set [2] (Administered amount 1 mg/kg) was found to be 16%. For the same compound, in [3], the “Partition Coefficient” value is listed as 0.36 and the logD is -0.444. Besides, the “Partition Coefficient (literature)” value in data set [6] is 0.34. For the same compound, the water-solubility / lipid-solubility result in [7] is listed as “highly water-soluble”. The “incorporation into liver / non-liver cells” value in [8] was “not incorporated into histoblasts other than those of liver”.
Regarding `CCC(C)(C)C(=O)O[C@H]1C[C@@H](C)C=C2C=C[C@H](C)[C@H](CC[C@@H]3C[C@@H](O)CC(=O)O3)[C@H]21` [Simvastatin], the figures for the “Sterol Synthesis Inhibition %” value in [2] (Administered amount 0.3 mg/kg) and in data set [2] (Administered amount 1 mg/kg) were 1% and 41%, respectively. Further, in [3] (ring-opened type sodium salt), the “Partition Coefficient” value turned out to be 74. In data set [6], the “Partition Coefficient (literature)” value is 75.8. Besides, the cholesterol lowering effect entry in [4] is reported as “strong cholesterol lowering effect”. Moreover, the “cytostatic function with respect to the cells of smooth muscles” value in data set [9] is reported as “antiarteriosclerosis effect because of its cytostatic function with respect to the cells of smooth muscles”.
Regarding `CC[C@H](C)C(=O)O[C@H]1C[C@@H](C)C=C2C=C[C@H](C)[C@H](CC[C@@H]3C[C@@H](O)CC(=O)O3)[C@H]21` [lovastatin], the side effects entry in data set [10] is “myositis and sleep disorder”. For the same compound, in data set [4], the cholesterol lowering effect entry is given as “strong cholesterol lowering effect”. For the same compound, the water-solubility / lipid-solubility result in data set [7] was “highly lipid-soluble”. Also, the “incorporation into liver / non-liver cells” value in [8] is “transferred into both liver cells and non-liver cells”.

By inhibition is commonly meant the drop in the measured response relative to a control, in per cent. In general, logD refers to lipophilicity at a set pH, counting ionised and neutral species. Low readings indicate lower lipophilicity, high ones higher lipophilicity.
